In PubChem BioAssay AID1918953 (Molecular Pharmacology Branch, DTP, NCI, 2023):

Test system: MDA-MB-231 complex spheroid viability
Assay: Anticancer human tumor MDA-MB-231/ATCC cell line growth inhibition;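 further: drug exposure lasted 7 days starting on day 3 of spheroid growth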
Conditions: for IC50: curve of first compound; for viability, T/C: stronger effect = lower value; active means viability on the fitted dose curve at most 10% of control; inactive means the rest
Excerpt: Multicellular complex tumor spheroid response to LSD1 Inhibitor Iadademstat in combination with a variety of drugs and investigational agents in selected tumor cell lines
The current study was undertaken to assess response to LSD1 inhibitors in combination with standard-of-care drugs and investigational agents in solid tumor complex spheroid models as well as in the K-562 leukemia. Complex spheroids include a stromal component modeled by human endothelial cells (HUVEC) and fibroblasts modeled by human mesenchymal stem cells (MSCs). The concentration ranges selected for each drug and investigational agent were based upon clinically achievable concentrations if the clinical Cmax of the agent was known.
Compounds. The drugs and investigational agents used in this study are listed on Table 1. All of the agents used, including staurosporine (NSC755774) and gemcitabine (NSC613327), were obtained from the Developmental Therapeutics Program, NCI. FDA-approved anticancer drugs are available from the NCI at http://dtp.nci.nih.gov/branches/dscb/oncology_drugset_explanation.html. Drugs and investigational agents were >95% pure by proton nuclear magnetic resonance (NMR) and liquid chromatography/mass spectrometry (LC/MS). Stock solutions were prepared at 400x in DMSO, stored at -70 degrees C, and diluted in fresh medium prior to their use. The final concentration of DMSO in cell culture wells never exceeded 0.25% (v/v). The FDA-approved anticancer drug set is available from the Developmental Therapeutics Program at https://dtp.cancer.gov/organization/dscb/obtaining/available_plates.htm. All drugs and investigational agents were tested over a range starting from a high concentration at or near the clinical Cmax and decreasing in half-log increments. If the clinical Cmax for an agent had not been determined, the highest concentration tested was 10 microM.
Cell Lines. The patient-derived cancer cell (PDC) lines: 292921-168-R-J2-PDC, K24384-001-R-PDC, and 521955-158-R2-J5-PDC pancreatic carcinomas, 556581-035-R-J1 ovarian carcinoma, 324938-238-R-J1-PDC, 855422-203-R-J1-PDC and 883617-216-R-J1-PDC urothelial bladder carcinomas, 743489-274-T-PDC renal cell carcinoma, 138582-R-J1 Merkel cell tumor, K60290-347-R-J1 and K57222-313-R-J1-PDC glioblastomas, 653999-131-R-J2-PDC, LG0703-F948-PDC, and 349418-098-R-PDC non-small cell lung carcinomas, 885512-296-R-J2-PDC, 171881-019-R-J1-PDC breast carcinomas and 186277-243-T-J2-PDC and 233499-124-R-J2-PDC colon carcinomas were obtained from the NCI Patient-Derived Models Repository (PDMR, https://pdmr.cancer.gov). The established cell lines NCI/ADR-RES (RRID:CVCL_14520 and OVCAR-5 (RRID:CVCL_1628) ovarian carcinomas, 786-O (RRID:CVCL_1051) and A498 (RRID:CVCL_A498) renal cell carcinoma, NCI-H211 (ATCC, cat. CRL-5824; RRID:CVCL_1529), NCI-H196 (ATCC, cat. CRL-5823, RRID:CVCL_1509), SW 1271 (ATCC, cat. CRL-2177, RRID:CVCL_1716) and NCI-H1876 (ATCC, cat. CRL-5902, RRID:CVCL_1503) small cell lung carcinomas, MDA-MB-231 (RRID:CVCL_0062) and MDA-MB-468 (RRID:CVCL_0419)breast carcinomas (10-12). Pooled donor human umbilical vein endothelial cells (HUVEC, Lonza, cat. CC-2519) and human mesenchymal stem cells (hMSC, Lonza, cat. PT-2501) were purchased from Lonza (Walkersville, MD).
Cell Culture. All cells were maintained in an incubator at 37 degrees C and 5% CO2 with 95% humidity. The PDC lines were cultured according to standard operating procedures established by the NCI PDMR (https://pdmr.cancer.gov). Briefly all PDCs were thawed and cultured in Matrigel-coated flasks prepared with a working solution of 1X Ham's F-12 nutrient mix, without supplementation (Invitrogen, Waltham, MA, cat. 11765054), 100 U/mL penicillin-streptomycin (Invitrogen, cat. 15140122), and 2.5% Matrigel (Corning Inc., Corning, NY, cat. 354248) for the first three passages. […]

[1] = second compound 0.1 µM, first compound 0.0316 µM
[2] = second compound 0.1 µM, first compound 0.1 µM
[3] = second compound 0.1 µM, first compound 0.316 µM
[4] = second compound 0.1 µM, first compound 1 µM
[5] = second compound 0.1 µM, first compound 3.16 µM
[6] = second compound 0.1 µM, first compound 10 µM
[7] = second compound 0.316 µM, first compound 0.0316 µM
[8] = second compound 0.316 µM, first compound 0.1 µM
[9] = second compound 0.316 µM, first compound 0.316 µM
[10] = second compound 0.316 µM, first compound 1 µM
[11] = second compound 0.316 µM, first compound 3.16 µM
[12] = second compound 0.316 µM, first compound 10 µM
[13] = second compound 1 µM, first compound 0.0316 µM
[14] = second compound 1 µM, first compound 0.1 µM
[15] = second compound 1 µM, first compound 0.316 µM
[16] = second compound 1 µM, first compound 1 µM
[17] = second compound 1 µM, first compound 3.16 µM
[18] = second compound 1 µM, first compound 10 µM
[19] = second compound 3.16 µM, first compound 0.0316 µM
[20] = second compound 3.16 µM, first compound 0.1 µM
[21] = second compound 3.16 µM, first compound 0.316 µM
[22] = second compound 3.16 µM, first compound 1 µM
[23] = second compound 3.16 µM, first compound 3.16 µM
[24] = second compound 3.16 µM, first compound 10 µM
[25] = second compound 10 µM, first compound 0.0316 µM
[26] = second compound 10 µM, first compound 0.1 µM
[27] = second compound 10 µM, first compound 0.316 µM
[28] = second compound 10 µM, first compound 1 µM
[29] = second compound 10 µM, first compound 3.16 µM
[30] = second compound 10 µM, first compound 10 µM

NS(=O)(=O)OCC1CC(n2ccc3c(NC4CCc5ccccc54)ncnc32)CC1O (stereo not given) + NC1CC1c1ccc(-c2cccc(O)c2)cc1
82.3 nM: IC50 (second compound 0.1 µM)
inactive: viability, T/C (second compound 0.1 µM, first compound 0.00949 µM) 128% | viability, T/C (second compound 0.1 µM, first compound 0.03 µM) 94.3% | viability, T/C (second compound 0.1 µM, first compound 0.0949 µM) 44.1% | viability, T/C (second compound 0.1 µM, first compound 0.3 µM) 28.6% | viability, T/C (second compound 0.1 µM, first compound 0.949 µM) 28.8% | viability, T/C (second compound 0.1 µM, first compound 3 µM) 27.9% | viability, T/C (second compound 0.316 µM, first compound 0.00949 µM) 118% | viability, T/C (second compound 0.316 µM, first compound 0.03 µM) 93.5% | viability, T/C (second compound 0.316 µM, first compound 0.0949 µM) 39.1% | viability, T/C (second compound 0.316 µM, first compound 0.3 µM) 27.2% | viability, T/C (second compound 0.316 µM, first compound 0.949 µM) 23.9% | viability, T/C (second compound 0.316 µM, first compound 3 µM) 27.8% | viability, T/C (second compound 1 µM, first compound 0.00949 µM) 114% | viability, T/C (second compound 1 µM, first compound 0.03 µM) 90.1% | viability, T/C (second compound 1 µM, first compound 0.0949 µM) 44.2% | viability, T/C (second compound 1 µM, first compound 0.3 µM) 29.3% | viability, T/C (second compound 1 µM, first compound 0.949 µM) 25.6% | viability, T/C (second compound 1 µM, first compound 3 µM) 28.4% | viability, T/C (second compound 3.16 µM, first compound 0.00949 µM) 116% | viability, T/C (second compound 3.16 µM, first compound 0.03 µM) 78.9% | viability, T/C (second compound 3.16 µM, first compound 0.0949 µM) 40.8% | viability, T/C (second compound 3.16 µM, first compound 0.3 µM) 27% | viability, T/C (second compound 3.16 µM, first compound 0.949 µM) 30.4% | viability, T/C (second compound 3.16 µM, first compound 3 µM) 28.3% | viability, T/C (second compound 10 µM, first compound 0.00949 µM) 68.6% | viability, T/C (second compound 10 µM, first compound 0.03 µM) 53.4% | viability, T/C (second compound 10 µM, first compound 0.0949 µM) 34.8% | viability, T/C (second compound 10 µM, first compound 0.3 µM) 27% | viability, T/C (second compound 10 µM, first compound 0.949 µM) 26.3% | viability, T/C (second compound 10 µM, first compound 3 µM) 20.2%
36.4 nM: IC50 (second compound 10 µM)
82 nM: IC50 (second compound 1 µM)
75.3 nM: IC50 (second compound 0.316 µM)
70.6 nM: IC50 (second compound 3.16 µM)

COc1ccc([C@@H](O)c2cc(-c3ncnc4cc(N5CCOCC5)ccc34)c(F)cc2Cl)nn1 + NC1CCC(NC2CC2c2ccccc2)CC1
555 nM: IC50 (second compound 0.316 µM)
280 nM: IC50 (second compound 10 µM)
669 nM: IC50 (second compound 1 µM)
inactive: viability, T/C [1] 89.3% | viability, T/C [2] 75.7% | viability, T/C [3] 55.6% | viability, T/C [4] 40.3% | viability, T/C [5] 27.9% | viability, T/C [6] 24.6% | viability, T/C [7] 91.5% | viability, T/C [8] 79.3% | viability, T/C [9] 59.1% | viability, T/C [10] 41.2% | viability, T/C [11] 27.6% | viability, T/C [12] 26% | viability, T/C [13] 96.6% | viability, T/C [14] 79.8% | viability, T/C [15] 65.7% | viability, T/C [16] 41.9% | viability, T/C [17] 28.9% | viability, T/C [18] 23.8% | viability, T/C [19] 74.2% | viability, T/C [20] 72.1% | viability, T/C [21] 54.2% | viability, T/C [22] 42.3% | viability, T/C [23] 27.2% | viability, T/C [24] 24.4% | viability, T/C [25] 62.8% | viability, T/C [26] 61% | viability, T/C [27] 47.5% | viability, T/C [28] 36.5% | viability, T/C [29] 28% | viability, T/C [30] 24.3%
483 nM: IC50 (second compound 0.1 µM)
505 nM: IC50 (second compound 3.16 µM)

CC1COCCN1c1cc(C2(S(C)(=N)=O)CC2)nc(-c2ccnc3[nH]ccc23)n1 (stereo not given) + NC1CCC(NC2CC2c2ccccc2)CC1
inactive: viability, T/C [1] 103% | viability, T/C [2] 99.2% | viability, T/C [3] 82.5% | viability, T/C [4] 51.1% | viability, T/C [5] 38.1% | viability, T/C [6] 29.4% | viability, T/C [7] 111% | viability, T/C [8] 109% | viability, T/C [9] 81.6% | viability, T/C [10] 59.2% | viability, T/C [11] 34.9% | viability, T/C [12] 29.3% | viability, T/C [13] 109% | viability, T/C [14] 100% | viability, T/C [15] 79.5% | viability, T/C [16] 56% | viability, T/C [17] 40% | viability, T/C [18] 30.3% | viability, T/C [19] 95% | viability, T/C [20] 87% | viability, T/C [21] 69.7% | viability, T/C [22] 53% | viability, T/C [23] 37.9% | viability, T/C [24] 33.3% | viability, T/C [25] 72.4% | viability, T/C [26] 68.2% | viability, T/C [27] 59.5% | viability, T/C [28] 48.1% | viability, T/C [29] 42.4% | viability, T/C [30] 32.3%
1530 nM: IC50 (second compound 1 µM)
1010 nM: IC50 (second compound 10 µM)
1460 nM: IC50 (second compound 0.316 µM)
1180 nM: IC50 (second compound 0.1 µM) | IC50 (second compound 3.16 µM)
